Test results reported in ChEMBL document CHEMBL2073798, “P-Glycoprotein mediates the efflux of quinidine across the blood-brain barrier” (J Pharmacol Exp Ther, 1997).

Tests used:
[1] = biological target: T1, ATP-dependent translocase ABCB1 (Mus musculus, UniProt P21447); experiment: TP_TRANSPORTER: increase in brain concentration in mdr1a(-/-) mouse; assay type: functional, organism-based; settings: in vivo
[2] = biological target: T1, ATP-dependent translocase ABCB1; experiment: TP_TRANSPORTER: increase in Quinidine concentration in brain in FVB mouse; assay type: functional, organism-based; settings: in vivo

T1 sequence (P21447 whole entry): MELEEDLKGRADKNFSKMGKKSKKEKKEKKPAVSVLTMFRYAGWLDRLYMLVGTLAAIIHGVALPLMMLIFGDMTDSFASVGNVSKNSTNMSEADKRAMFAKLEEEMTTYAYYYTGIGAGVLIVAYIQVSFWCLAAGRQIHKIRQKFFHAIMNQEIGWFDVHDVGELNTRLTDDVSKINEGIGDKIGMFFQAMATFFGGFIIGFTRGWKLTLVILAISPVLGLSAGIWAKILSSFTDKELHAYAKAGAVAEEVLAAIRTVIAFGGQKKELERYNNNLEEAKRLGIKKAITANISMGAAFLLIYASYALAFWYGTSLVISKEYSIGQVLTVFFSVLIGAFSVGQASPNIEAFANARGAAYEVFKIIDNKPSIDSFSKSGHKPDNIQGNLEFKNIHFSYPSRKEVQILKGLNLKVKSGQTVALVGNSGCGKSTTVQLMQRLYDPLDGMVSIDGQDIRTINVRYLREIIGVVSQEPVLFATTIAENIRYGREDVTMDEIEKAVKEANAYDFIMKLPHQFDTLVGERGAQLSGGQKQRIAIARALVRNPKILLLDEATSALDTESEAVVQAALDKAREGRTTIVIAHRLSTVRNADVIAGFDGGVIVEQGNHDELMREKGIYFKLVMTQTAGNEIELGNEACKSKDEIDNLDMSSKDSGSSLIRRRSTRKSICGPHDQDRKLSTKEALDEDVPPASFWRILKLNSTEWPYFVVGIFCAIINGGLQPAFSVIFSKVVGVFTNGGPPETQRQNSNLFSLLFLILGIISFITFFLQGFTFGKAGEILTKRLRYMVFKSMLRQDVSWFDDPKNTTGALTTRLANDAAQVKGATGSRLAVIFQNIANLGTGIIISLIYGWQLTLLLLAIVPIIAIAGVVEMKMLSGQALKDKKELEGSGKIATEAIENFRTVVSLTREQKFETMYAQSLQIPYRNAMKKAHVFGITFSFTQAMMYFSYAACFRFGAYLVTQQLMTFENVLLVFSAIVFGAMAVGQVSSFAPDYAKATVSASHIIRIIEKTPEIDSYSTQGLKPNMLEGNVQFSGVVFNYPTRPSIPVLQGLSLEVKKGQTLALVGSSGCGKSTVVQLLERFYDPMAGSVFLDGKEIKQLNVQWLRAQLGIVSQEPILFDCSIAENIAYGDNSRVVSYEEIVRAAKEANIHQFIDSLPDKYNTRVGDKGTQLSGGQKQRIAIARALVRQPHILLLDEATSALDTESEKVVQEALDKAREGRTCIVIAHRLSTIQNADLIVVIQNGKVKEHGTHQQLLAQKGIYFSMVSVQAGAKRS

Activity [1] | Activity [2] [fold] | SMILES
substrate [+] | – | C=C[C@H]1C[N@@]2CC[C@H]1C[C@@H]2[C@@H](O)c1ccnc2ccc(OC)cc12 [QUINIDINE]
– | 10.2 | C/C=C/C[C@@H](C)C(=O)[C@H]1C(=O)N[C@@H](C(C)C)C(=O)N(C)CC(=O)N(C)[C@@H](CC(C)C)C(=O)N[C@@H](C(C)C)C(=O)N(C)[C@@H](CC(C)C)C(=O)N[C@@H](C)C(=O)N[C@H](C)C(=O)N(C)[C@@H](CC(C)C)C(=O)N(C)[C@@H](CC(C)C)C(=O)N(C)[C@@H](C(C)C)C(=O)N1C [VALSPODAR]
